The text below walks through data of publication PMC11345830, “Exploration of Hydrazide-Based HDAC8 PROTACs for the Treatment of Hematological Malignancies and Solid Tumors” (Journal of Medicinal Chemistry, 2024).

Structures are written as SMILES. Where two headings read alike, the source gives them in different places.

Assay [1] has as its system Jurkat cells. The experiment in a line: Cell viability MTS assay, Jurkat. The following applies: Homo sapiens, Jurkat; 72 h, MTS assay; read-out: IC50 antiproliferative, Jurkat. It counts as cell-based. How it is done:
(§1) MTS assay was used to measure the cell viability. For single treatment, Jurkat, THP-1 and HEL (8000 cells/well), HCT116 and A549 (2000 cells/well) were seeded in 96-well plates in 100 μL complete medium. After overnight incubation, 50 μL of media containing various concentrations of compounds or the vehicle were added to each well. For cotreatment, cells were seeded in 96-well plates in 50 μL complete medium. After overnight incubation, 50 μL of Z-VAD-FMK, Nec-1, Fer-1, CQ, and other indicated compounds were added to each well. One hour later, 50 μL of media containing various concentrations of compounds were added to each well. After 72 h of treatment, 20 μL of CellTiter 96 AQueous One Solution reagent (Promega, Madison, USA) was added to each well according to manufacturer’s protocol. Plates were incubated at 37 °C for 1–2 h. The absorbance was determined at a wavelength of 490 nm using a Synergy H1 plate reader (Biotek, Winooski, VT, USA).

For assay [2], the system named is THP-1 cells. Put plainly: Cell viability MTS assay, THP-1. The following applies: Homo sapiens, 72 h, read-out: IC50 antiproliferative, THP-1. It counts as cell-based. On the procedure:
as §1
A general note: Tetrazolium dyes change colour on reduction, which living cells bring about.

Assay [3] deals with HCT116 cells. Put plainly: Cell viability MTS assay, HCT116. The class given is cell-based. The following applies: Homo sapiens, HCT-116, 72 h, read-out: IC50 antiproliferative, HCT116. On the procedure:
as §1

Assay [4] relates to A549 cells. Put plainly: Cell viability MTS assay, A549. It counts as cell-based. The following applies: Homo sapiens, 72 h, read-out: IC50 antiproliferative, A549. On the procedure: as §1
Assay [5] relates to acetyl-SMC3 (Ac-SMC3). Put plainly: Ac-SMC3 level in Jurkat cells, Western blot. The class given is cell-based. Conditions: 1 μM, 6 h. For orientation: In western blotting, separated proteins are transferred to a membrane and probed.
For assay [6], the target named is HDAC1 (Homo sapiens, UniProt Q13547). Put plainly: In vitro HDAC1 deacetylase inhibition assay. The following applies: read-out: HDAC1 IC50; recombinant enzyme, Boc-Lys(Ac)-AMC.
Description: (§2) After a following incubation at 37 °C for 20 min, the fluorescence was measured on a Synergy H1 Platereader (BioTek, USA) with an excitation wavelength of 370 nm and an emission wavelength of 460 nm. Nonlinear regression was used for the determination of the IC50 of each compound.
Assay [7] deals with HDAC2 (Homo sapiens, UniProt Q92769). The experiment in a line: In vitro HDAC2 deacetylase inhibition assay. Conditions: read-out: HDAC2 IC50; recombinant enzyme, Boc-Lys(Ac)-AMC.
Description: as §2
Assay [8] concerns the target HDAC3/NcoR2 (Homo sapiens, UniProt O15379). Put plainly: In vitro HDAC3 deacetylase inhibition assay. The following applies: read-out: HDAC3 IC50; recombinant enzyme, Boc-Lys(Ac)-AMC.
Description: as §2
Assay [9] deals with T1, HDAC8 (Homo sapiens, UniProt Q9BY41).
T1 sequence (Q9BY41 1-377): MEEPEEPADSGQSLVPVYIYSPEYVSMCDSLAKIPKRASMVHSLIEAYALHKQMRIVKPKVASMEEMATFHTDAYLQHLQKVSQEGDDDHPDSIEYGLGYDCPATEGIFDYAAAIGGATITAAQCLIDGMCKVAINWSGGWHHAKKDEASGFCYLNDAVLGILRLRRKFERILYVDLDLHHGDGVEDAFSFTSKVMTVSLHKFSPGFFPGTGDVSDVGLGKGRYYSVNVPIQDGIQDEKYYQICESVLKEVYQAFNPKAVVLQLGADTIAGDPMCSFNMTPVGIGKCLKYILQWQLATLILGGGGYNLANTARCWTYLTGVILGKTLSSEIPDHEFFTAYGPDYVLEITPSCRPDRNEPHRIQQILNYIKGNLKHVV
The experiment in a line: In vitro HDAC8 deacetylase inhibition assay. Conditions: read-out: HDAC8 IC50; recombinant enzyme, Boc-Lys(TFA)-AMC.
Description: as §2

For assay [10], the target named is T2, HDAC6 (Homo sapiens, UniProt Q9UBN7).
T2 sequence (Q9UBN7 1-1215): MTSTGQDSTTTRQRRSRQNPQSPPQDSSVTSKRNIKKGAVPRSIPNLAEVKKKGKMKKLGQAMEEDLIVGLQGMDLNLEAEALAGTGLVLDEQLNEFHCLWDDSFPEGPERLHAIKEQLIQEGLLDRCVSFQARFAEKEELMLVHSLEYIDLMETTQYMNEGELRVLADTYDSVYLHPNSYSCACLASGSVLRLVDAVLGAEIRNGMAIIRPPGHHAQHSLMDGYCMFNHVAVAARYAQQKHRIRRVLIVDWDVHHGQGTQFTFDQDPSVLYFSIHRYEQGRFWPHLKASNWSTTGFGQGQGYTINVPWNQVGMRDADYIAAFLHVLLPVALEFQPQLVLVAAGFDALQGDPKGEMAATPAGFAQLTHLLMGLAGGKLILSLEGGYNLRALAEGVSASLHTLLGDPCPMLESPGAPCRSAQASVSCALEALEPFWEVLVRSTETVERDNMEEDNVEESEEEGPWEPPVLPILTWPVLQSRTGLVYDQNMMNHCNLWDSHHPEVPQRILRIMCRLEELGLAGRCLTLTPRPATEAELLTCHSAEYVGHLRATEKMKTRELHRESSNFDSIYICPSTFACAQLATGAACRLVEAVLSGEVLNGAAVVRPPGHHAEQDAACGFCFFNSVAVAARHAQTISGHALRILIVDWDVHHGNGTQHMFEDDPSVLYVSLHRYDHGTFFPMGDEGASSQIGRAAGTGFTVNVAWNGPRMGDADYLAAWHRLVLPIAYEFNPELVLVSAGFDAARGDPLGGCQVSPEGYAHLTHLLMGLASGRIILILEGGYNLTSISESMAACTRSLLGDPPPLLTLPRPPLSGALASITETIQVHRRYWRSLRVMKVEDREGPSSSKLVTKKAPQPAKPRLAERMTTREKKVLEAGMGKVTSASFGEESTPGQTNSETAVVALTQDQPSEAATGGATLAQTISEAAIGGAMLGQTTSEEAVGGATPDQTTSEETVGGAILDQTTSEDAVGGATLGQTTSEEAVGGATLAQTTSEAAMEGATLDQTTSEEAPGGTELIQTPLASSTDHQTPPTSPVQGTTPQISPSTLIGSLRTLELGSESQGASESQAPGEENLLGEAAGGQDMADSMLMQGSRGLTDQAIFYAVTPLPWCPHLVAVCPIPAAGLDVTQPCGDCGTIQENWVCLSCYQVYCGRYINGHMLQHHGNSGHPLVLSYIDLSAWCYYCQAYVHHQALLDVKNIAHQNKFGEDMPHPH
On the set-up: endogenous in cells. The following applies: MDA-MB-231 cells; cited from earlier work.

Assay [11] deals with T2, HDAC6. More on the design: endogenous in cells; host or cells: Jurkat. The following applies: Jurkat cells; cited from earlier work.
Assay [12] deals with T1, HDAC8. On the set-up: endogenous in cells; host or cells: A549; method as in PMID 36516047. Conditions: A549 cells; cited from earlier work.

Chain of HDAC3/NcoR2 (O15379 whole entry): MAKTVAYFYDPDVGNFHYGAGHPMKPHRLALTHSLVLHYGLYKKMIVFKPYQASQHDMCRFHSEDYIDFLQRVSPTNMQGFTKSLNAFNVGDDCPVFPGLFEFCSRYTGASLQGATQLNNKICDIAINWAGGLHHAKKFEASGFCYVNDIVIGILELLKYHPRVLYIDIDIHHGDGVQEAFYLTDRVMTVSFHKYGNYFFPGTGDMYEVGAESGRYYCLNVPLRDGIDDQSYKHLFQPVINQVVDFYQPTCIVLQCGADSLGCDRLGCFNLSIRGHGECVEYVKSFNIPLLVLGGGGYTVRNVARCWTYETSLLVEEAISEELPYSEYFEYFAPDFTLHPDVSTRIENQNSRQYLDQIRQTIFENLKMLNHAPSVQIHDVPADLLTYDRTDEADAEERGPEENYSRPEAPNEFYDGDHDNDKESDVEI
Chain of HDAC3/NcoR2 (Q9Y618 395-489 partner limits assumed): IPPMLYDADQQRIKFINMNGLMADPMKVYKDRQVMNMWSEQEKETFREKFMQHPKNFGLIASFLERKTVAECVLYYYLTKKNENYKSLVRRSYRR
Chain of HDAC2 (Q92769 whole entry): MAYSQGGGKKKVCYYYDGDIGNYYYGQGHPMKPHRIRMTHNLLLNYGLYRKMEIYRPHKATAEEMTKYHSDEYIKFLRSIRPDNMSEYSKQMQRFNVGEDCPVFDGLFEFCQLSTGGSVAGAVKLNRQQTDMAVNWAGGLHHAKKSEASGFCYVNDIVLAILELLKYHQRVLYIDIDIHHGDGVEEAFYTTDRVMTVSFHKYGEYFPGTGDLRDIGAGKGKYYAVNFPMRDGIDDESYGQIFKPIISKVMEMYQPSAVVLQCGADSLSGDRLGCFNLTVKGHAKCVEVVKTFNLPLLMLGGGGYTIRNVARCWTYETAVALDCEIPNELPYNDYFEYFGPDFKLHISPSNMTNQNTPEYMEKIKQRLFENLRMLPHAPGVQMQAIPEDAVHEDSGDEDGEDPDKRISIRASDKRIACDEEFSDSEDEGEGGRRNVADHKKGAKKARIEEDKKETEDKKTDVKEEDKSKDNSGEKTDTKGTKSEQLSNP
Chain of HDAC1 (Q13547 whole entry): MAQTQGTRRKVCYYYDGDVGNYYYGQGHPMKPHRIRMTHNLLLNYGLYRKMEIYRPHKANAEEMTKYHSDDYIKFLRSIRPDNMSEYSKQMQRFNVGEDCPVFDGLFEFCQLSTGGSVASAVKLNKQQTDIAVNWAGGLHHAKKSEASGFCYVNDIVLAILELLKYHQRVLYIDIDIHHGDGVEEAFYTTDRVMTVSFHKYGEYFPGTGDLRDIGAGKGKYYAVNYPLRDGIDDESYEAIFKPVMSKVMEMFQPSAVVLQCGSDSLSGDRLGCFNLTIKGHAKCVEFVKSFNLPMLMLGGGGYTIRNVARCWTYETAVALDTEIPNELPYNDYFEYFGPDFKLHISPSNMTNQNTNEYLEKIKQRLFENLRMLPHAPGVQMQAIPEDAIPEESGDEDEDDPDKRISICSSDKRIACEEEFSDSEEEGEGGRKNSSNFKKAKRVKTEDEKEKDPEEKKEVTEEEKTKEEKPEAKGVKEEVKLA

The term IC50 denotes the concentration at which inhibition is half-maximal. As for `CCCCCCNNC(=O)c1ccc(CNC(C)=O)cc1` [Compound 6, N-(4-(2-Hexylhydrazine-1-carbonyl)benzyl)acetamide], the IC50 in assay [1] is more than 33.3 µM; in assay [2], more than 33.3 µM; in assay [3], more than 33.3 µM; in assay [4], more than 33.3 µM; in assay [6] it was 0.94 ± 0.05 µM; in [7] it was 8 ± 1 µM. For the same compound, the concentration for half-maximal inhibition (IC50) in assay [8] is 9.5 ± 0.7 µM; in assay [9] it was 0.6 ± 0.08 µM. The “level of Ac-SMC3 at 1 μM (in words)” value in assay [5] is reported as “neither 1 μM of pan-HDAC inhibitor SAHA nor 1 μM of HDAC8 inhibitor 6 increased the level of Ac-SMC3”.

With `COc1ccc(C(=O)NO)cc1OCc1ccc(C(=O)NCCCCCCCCNc2cccc3c2C(=O)N(C2CCC(=O)NC2=O)C3=O)cc1` (stereo not shown) [PROTAC 4], the half-maximal inhibitory concentration (IC50) in assay [1] amounted to 4 ± 0.8 µM; in assay [2], 10.8 ± 0.9 µM; in assay [3] it was 8 ± 0.5 µM; in assay [4], 15.2 ± 3.3 µM. Further, the DC50 is 0.038 µM in assay [10] and 0.0785 µM in assay [11].

On to `O=C1CCC(N2C(=O)c3cccc(NCc4cn(CCOCCOc5ccc(Cn6ccc7ccc(C(=O)NO)cc76)cc5)nn4)c3C2=O)C(=O)N1` (stereo not shown) [PROTAC 5], for which the DC50 in assay [12] was 0.58 µM.
